Source: article PMC6248945, “Antibacterial properties of the pituitary adenylate cyclase-activating polypeptide: A new human antimicrobial peptide” (PLoS ONE, 2018)
≈ marks a conversion by molar mass, not a printed value. Where two headings read alike, the source gives them in different places. Where a SMILES comes first, the peptide text is derived from it.

How the values were obtained:
[1] = tested on: Bacillus amyloliquefaciens (LMG22478); conditions: LMG22478, 20 h
Escherichia coli (JM109) = assay: MIC, CLSI microdilution; assay type: cell-based; conditions: MHB, 37 °C, 20h, OD read-out, at least triplicate
Procedure: Assays were performed according to the CLSI microdilution method. Briefly, the bacterial strains were inoculated and allowed to reach an OD600 of 0.08–0.13 prior to dilution to 10^6 CFU/mL in Mueller-Hinton broth (MHB). A bacterial suspension (50 μL) was then added to each well of a 96-well microplate containing serially diluted peptide solutions (50 μL in MHB) and incubated at 37 °C for 20h. A well containing sterilized medium was used as a sterility control and another well containing no added peptide served as a growth control.

[2] = tested on: Burkholderia cenocepacia (K56-2); conditions: 20 h
[3] = tested on: Burkholderia cenocepacia (LMG19240); conditions: CLSI microdilution, MHB, 37 °C, 20h, OD read-out; at least triplicate
[4] = tested on: Pseudomonas fluorescens (MF37); conditions: 20 h
Bacillus subtilis (PY79) = conditions: PY79, 20 h
[5] = tested on: Staphylococcus aureus (Newman); conditions: 20 h
[6] = tested on: Burkholderia thailendensis (ATCC700388); conditions: CLSI microdilution, MHB, 37 °C, 20h, OD read-out; at least triplicate
[7] = tested on: Burkholderia cenocepacia (LMG18829); conditions: LMG18829, 20 h
[8] = tested on: Pseudomonas aeruginosa (PA14); conditions: PA14, 20 h
[9] = tested on: Staphylococcus aureus (ATCC6538#P); conditions: ATCC6538, 20 h
[10] = tested on: Burkholderia cenocepacia (CEP0511 Gvar3b); conditions: CLSI microdilution, MHB, 37 °C, 20h, OD read-out; at least triplicate
[11] = tested on: Escherichia coli (O157 :H7); conditions: CLSI microdilution, MHB, 37 °C, 20h, OD read-out; at least triplicate
[12] = tested on: Pseudomonas putida (KT2440); conditions: 20 h
[13] = relative to PACAP38; cited from earlier work
[14] = tested on: Burkholderia cenocepacia (J2315); conditions: 20 h
[15] = tested on: Serratia marcescens (ATCC14756); conditions: ATCC14756, 20 h
[16] = tested on: Bacillus cereus (ATCC11778); conditions: ATCC11778, 20 h
[17] = tested on: Bacillus circulans (LSPQ3543); conditions: 20 h
DPP-IV = tested on: DPP-IV; parameters: method as in PMID 18353507; conditions: cited from earlier work
[18] = tested on: Escherichia coli ATCC25922; conditions: ATCC25922, 20 h
[19] = tested on: Actinobacillus pleuropneumoniae (4074); conditions: 20 h
Bacillus velezensis = conditions: 20 h
[20] = tested on: Pseudomonas aeruginosa (ATCC33350-Sero-2); conditions: ATCC33350, 20 h

SMILES | MIC, Bacillus amyloliquefaciens [1] | MIC, Escherichia coli (JM109) (Escherichia coli (JM109)) | MIC, Burkholderia cenocepacia (K56-2) [2] | MIC, Burkholderia cenocepacia (LMG19240) [3] | MIC, Pseudomonas fluorescens (MF37) [4] | MIC, Bacillus subtilis (PY79) (Bacillus subtilis (PY79)) | MIC, Staphylococcus aureus (Newman) [5] | MIC, Burkholderia thailendensis (ATCC700388) [6] | MIC, Burkholderia cenocepacia (LMG18829) [7] | MIC, Pseudomonas aeruginosa (PA14) [8] | MIC, Staphylococcus aureus (ATCC6538#P) [9] | MIC, Burkholderia cenocepacia (CEP0511 Gvar3b) [10] | MIC, Escherichia coli (O157 :H7) [11] | MIC, Pseudomonas putida (KT2440) [12] | Metabolic stability in human plasma [13] | MIC, Burkholderia cenocepacia (J2315) [14] | MIC, Serratia marcescens (ATCC14756) [15] | MIC, Bacillus cereus (ATCC11778) [16] | MIC, Bacillus circulans (LSPQ3543) [17] | Metabolic stability against DPP-IV (DPP-IV) | other results
CC[C@H](C)[C@H](NC(=O)CNC(=O)[C@H](CC(=O)O)NC(=O)[C@H](CO)NC(=O)[C@@H](N)Cc1c[nH]cn1)C(=O)N[C@@H](Cc1ccccc1)C(=O)N[C@H](C(=O)N[C@@H](CC(=O)O)C(=O)N[C@@H](CO)C(=O)N[C@@H](Cc1ccc(O)cc1)C(=O)N[C@@H](CO)C(=O)N[C@@H](CCCNC(=N)N)C(=O)N[C@@H](Cc1ccc(O)cc1)C(=O)N[C@@H](CCCNC(=N)N)C(=O)N[C@@H](C)C(=O)N[C@@H](CCC(N)=O)C(=O)N[C@@H](CCSC)C(=O)N[C@@H](C)C(=O)N[C@H](C(=O)N[C@@H](CCCCN)C(=O)N[C@@H](CCCCN)C(=O)N[C@@H](Cc1ccc(O)cc1)C(=O)N[C@@H](CC(C)C)C(=O)N[C@@H](C)C(=O)N[C@@H](C)C(=O)N[C@H](C(=O)N[C@@H](CC(C)C)C(=O)NCC(=O)N[C@@H](CCCCN)C(=O)N[C@@H](CCCNC(=N)N)C(=O)N[C@@H](Cc1ccc(O)cc1)C(=O)N[C@@H](CCCCN)C(=O)N[C@@H](CCC(N)=O)C(=O)N[C@@H](CCCNC(=N)N)C(=O)N[C@H](C(=O)N[C@@H](CCCCN)C(=O)N[C@@H](CC(N)=O)C(=O)N[C@@H](CCCCN)C(N)=O)C(C)C)C(C)C)C(C)C)[C@@H](C)O [compound 3, [Ala^15]PACAP38] (H-HSDGIFTDSYSRYRAQMAVKKYLAAVLGKRYKQRVKNK-NH2) | 10 µg/mL (≈ 2.23 µM) | 93 µg/mL (≈ 20.8 µM) | >200 µg/mL | >200 µg/mL | >200 µg/mL | 5 µg/mL (≈ 1.12 µM) | >200 µg/mL | >200 µg/mL | >200 µg/mL | >200 µg/mL | >200 µg/mL | >200 µg/mL | >200 µg/mL | 93 µg/mL (≈ 20.8 µM) | improved metabolic stability | 9 µg/mL (≈ 2.01 µM) | >200 µg/mL | >200 µg/mL | 21 µg/mL (≈ 4.69 µM) | improved metabolic stability | MIC, Bacillus subtilis (2597) (Bacillus subtilis (2597); 2597, 20 h): 111 µg/mL (≈ 24.8 µM); MIC, Escherichia coli ATCC25922 [18]: >200 µg/mL; MIC, Actinobacillus pleuropneumoniae [19]: 112 µg/mL (≈ 25 µM); MIC, Bacillus velezensis (Bacillus velezensis): 33 µg/mL (≈ 7.37 µM); MIC, Pseudomonas aeruginosa (ATCC33350-Sero-2) [20]: >200 µg/mL
CC[C@H](C)[C@H](NC(=O)CNC(=O)[C@H](CC(=O)O)NC(=O)[C@H](CO)NC(=O)[C@@H](N)Cc1c[nH]cn1)C(=O)N[C@@H](Cc1ccccc1)C(=O)N[C@H](C(=O)N[C@@H](CC(=O)O)C(=O)N[C@@H](CO)C(=O)N[C@@H](Cc1ccc(O)cc1)C(=O)N[C@@H](CO)C(=O)N[C@@H](CCCNC(=N)N)C(=O)N[C@@H](Cc1ccc(O)cc1)C(=O)N[C@@H](CCCNC(=N)N)C(=O)N[C@@H](CCCCN)C(=O)N[C@@H](CCC(N)=O)C(=O)N[C@@H](CCSC)C(=O)N[C@@H](C)C(=O)N[C@H](C(=O)N[C@@H](C)C(=O)N[C@@H](CCCCN)C(=O)N[C@@H](Cc1ccc(O)cc1)C(=O)N[C@@H](CC(C)C)C(=O)N[C@@H](C)C(=O)N[C@@H](C)C(=O)N[C@H](C(=O)N[C@@H](CC(C)C)C(=O)NCC(=O)N[C@@H](CCCCN)C(=O)N[C@@H](CCCNC(=N)N)C(=O)N[C@@H](Cc1ccc(O)cc1)C(=O)N[C@@H](CCCCN)C(=O)N[C@@H](CCC(N)=O)C(=O)N[C@@H](CCCNC(=N)N)C(=O)N[C@H](C(=O)N[C@@H](CCCCN)C(=O)N[C@@H](CC(N)=O)C(=O)N[C@@H](CCCCN)C(N)=O)C(C)C)C(C)C)C(C)C)[C@@H](C)O [compound 4, [Ala^20]PACAP38] (H-HSDGIFTDSYSRYRKQMAVAKYLAAVLGKRYKQRVKNK-NH2) | 7 µg/mL (≈ 1.56 µM) | 28 µg/mL (≈ 6.25 µM) | >200 µg/mL | >200 µg/mL | 112 µg/mL (≈ 25 µM) | 3 µg/mL (≈ 0.67 µM) | >200 µg/mL | >200 µg/mL | >200 µg/mL | 112 µg/mL (≈ 25 µM) | >200 µg/mL | >200 µg/mL | 168 µg/mL (≈ 37.5 µM) | 56 µg/mL (≈ 12.5 µM) | improved metabolic stability | 5 µg/mL (≈ 1.12 µM) | >200 µg/mL | >200 µg/mL | 47 µg/mL (≈ 10.5 µM) | improved metabolic stability | MIC, Bacillus subtilis (2597) (Bacillus subtilis (2597); CLSI microdilution, MHB, 37 °C, 20h, OD read-out, at least triplicate): 168 µg/mL (≈ 37.5 µM); MIC, Escherichia coli ATCC25922 [18]: >200 µg/mL; MIC, Actinobacillus pleuropneumoniae [19]: >200 µg/mL; MIC, Bacillus velezensis (Bacillus velezensis): 61 µg/mL (≈ 13.6 µM); MIC, Pseudomonas aeruginosa (ATCC33350-Sero-2) [20]: >200 µg/mL
CC[C@H](C)[C@H](NC(=O)CNC(=O)[C@H](CC(=O)O)NC(=O)[C@H](CO)NC(=O)[C@@H](N)Cc1c[nH]cn1)C(=O)N[C@@H](Cc1ccccc1)C(=O)N[C@H](C(=O)N[C@@H](CC(=O)O)C(=O)N[C@@H](CO)C(=O)N[C@@H](Cc1ccc(O)cc1)C(=O)N[C@@H](CO)C(=O)N[C@@H](CCCNC(=N)N)C(=O)N[C@@H](Cc1ccc(O)cc1)C(=O)N[C@@H](CCCNC(=N)N)C(=O)N[C@@H](CCCCN)C(=O)N[C@@H](CCC(N)=O)C(=O)N[C@@H](CCSC)C(=O)N[C@@H](C)C(=O)N[C@H](C(=O)N[C@@H](CCCCN)C(=O)N[C@@H](C)C(=O)N[C@@H](Cc1ccc(O)cc1)C(=O)N[C@@H](CC(C)C)C(=O)N[C@@H](C)C(=O)N[C@@H](C)C(=O)N[C@H](C(=O)N[C@@H](CC(C)C)C(=O)NCC(=O)N[C@@H](CCCCN)C(=O)N[C@@H](CCCNC(=N)N)C(=O)N[C@@H](Cc1ccc(O)cc1)C(=O)N[C@@H](CCCCN)C(=O)N[C@@H](CCC(N)=O)C(=O)N[C@@H](CCCNC(=N)N)C(=O)N[C@H](C(=O)N[C@@H](CCCCN)C(=O)N[C@@H](CC(N)=O)C(=O)N[C@@H](CCCCN)C(N)=O)C(C)C)C(C)C)C(C)C)[C@@H](C)O [compound 5, [Ala^21]PACAP38] (H-HSDGIFTDSYSRYRKQMAVKAYLAAVLGKRYKQRVKNK-NH2) | 20 µg/mL (≈ 4.47 µM) | 112 µg/mL (≈ 25 µM) | >200 µg/mL | >200 µg/mL | >200 µg/mL | 42 µg/mL (≈ 9.38 µM) | >200 µg/mL | >200 µg/mL | >200 µg/mL | >200 µg/mL | >200 µg/mL | >200 µg/mL | >200 µg/mL | 186 µg/mL (≈ 41.5 µM) | improved metabolic stability | 20 µg/mL (≈ 4.47 µM) | >200 µg/mL | >200 µg/mL | 84 µg/mL (≈ 18.8 µM) | improved metabolic stability | MIC, Bacillus subtilis (2597) (Bacillus subtilis (2597); 2597, 20 h): 56 µg/mL (≈ 12.5 µM); MIC, Escherichia coli ATCC25922 [18]: >200 µg/mL; MIC, Actinobacillus pleuropneumoniae [19]: >200 µg/mL; MIC, Bacillus velezensis (Bacillus velezensis): 168 µg/mL (≈ 37.5 µM); MIC, Pseudomonas aeruginosa (ATCC33350-Sero-2) [20]: >200 µg/mL
